Reference: US10226455B2 (priority 2014, dated 2019)
Read-outs that look alike come from different tables or passages of the source.

Assays:
P-gp = conditions: previously demonstrated; cited from earlier work
P. Falciparum [1] = assay: In vitro inhibition of P. falciparum variants, DAPI fluorescence imaging assay in erythrocyte cultures; type: cell-based
From the text: Sensitivity of the P. Falciparum variants to (i.e. inhibition of the parasites by) RTI-79chloroquine, or rifamycin was quantitated via assay as previously described. Duffy, S. and V. M. Avery, Development and optimization of a novel 384-well anti-malarial imaging assay validated for high-throughput screening. Am J Trop Med Hyg, 2012. 86(1): p. 84-92. Inhibition of P. Falciparum with various concentrations of the inhibitors was quantified by measuring DAPI fluorescence of parasite DNA in erythrocyte cultures.
Decreased DAPI staining quantified as relative light units (“RLU”), is observed with parasite inhibition in the assays.

[2] = Time to maximal plasma concentration / tissue absorption after administration
From the text: In certain embodiments, the rifamycin, rifamycin derivative, rifampicin, rifampicin derivative, or pharmaceutically acceptable salt, hydrate, or prodrug thereof, or combination thereof, can be administered in a method that matches the pharmokinetics of the composition to that of the antiparasitic drug also administered to the recipient.

[3] = test system: multidrug resistant Haemonchus contortus isolate UGA2004 L3 stage larvae; conditions: for inhibition of larval motility compared with verapamil: with IVR, 10 or 20 uM RTI-79, 20 uM RTI-176, 10 uM verapamil
Protocol: Each well contained a 300 uL solution containing approximately 75 L3 stage larvae, IVR, and pgp inhibitor or control. IVR was provided in serially diluted concentrations of 50, 25, 12.5, 6.25, 3.125, 1.56, 0.78 or 0.39 uM, to permit evaluation of the dose response to IVR in the presence of the pgp inhibitors. Inhibition of larval motility was determined by failure of the incubated larvea to move when stimulated by light exposure after incubation.

[4] = test system: UGA2004 H. contortus isolate eggs; assay: Larval development assay, sensitization to thiabendazole; set-up: species or system Haemonchus contortus
Protocol: TBZ was provided in a range of concentrations to permit evaluation of the dose response to TBZ in the presence of the pgp inhibitors. After incubation of the eggs for seven days, the number of stage 3 (“L3”) larvae that developed with each treatment was counted.

P. Falciparum [5] = conditions: read-out: previously-reported IC50 of chloroquine, cited from earlier work
P. Falciparum [6] = assay: Chloroquine sensitization in chloroquine-resistant P. Falciparum (survival of variants); type: cell-based
From the text: Quinine and quinine derivatives including chloroquine inhibit the Plasmodium parasites, including P. Falciparum, by accumulating in food vacuoles and causing accumulation of cytotoxic heme, thereby poisoning the parasite.

[7] = cited from earlier work

4-deoxy-3,4[2-spiro-[1-(isobutyloxycarbonyl)-piperidin-4-yl]]-(1H)-imidazo-(2,5-dihydro)rifamycin S [RTI-79]
drug efflux from cells (P-gp): prevent drug efflux from cells | inhibition of strains (DAPI staining, RLU) (P. Falciparum [1]; all strains, FIGS. 1A-1C): Dose-dependent inhibition of all strains | IC50 (P. Falciparum [1]; all variants (3D7, Dd2, K1; chloroquine-sensitive and -resistant), read-out: observed IC50): ~625 nM | time to maximal plasma concentration [2]: ≤ 3 h | inhibition of larval motility compared with verapamil [3]: more potent inhibition of larval motility

11-deoxy-11-amino-4-deoxy-3,4[2-spiro-[1-(isobutyloxycarbonyl)-piperidin-4-yl]]-(1H)-imidazo-(2,5-dihydro)rifamycin S [RTI-176]
shift of IVR dose response curve ([3]; relative to the 1% DMSO control, FIG. 3A): shifted the IVR dose response curve to the left | inhibition of larval motility compared with verapamil [3]: more potent inhibition of larval motility | shift of TBZ dose response curve ([4]; relative to both verapamil and the 1% DMSO control, FIG. 3B): shifted the TBZ dose response curve to the left | shift of the IC50 of TBZ ([4]; seven days incubation, relative to control and verapamil): 3.79 fold

CCN(CC)CCCC(C)Nc1ccnc2cc(Cl)ccc12 (centres unmarked) [chloroquine]
IC50 (P. Falciparum [5]; chloroquine-resistant Dd2 variant): 100 nM | IC50 (P. Falciparum [5]; chloroquine-resistant K1 variant): 255 nM | IC50 (P. Falciparum [5]; chloroquine-sensitive 3D7 variant): ~10 nM | parasite survival (P. Falciparum [6]; 3D7 variant, chloroquine at or greater than IC50): death of the parasite | parasite survival (P. Falciparum [6]; chloroquine-resistant variants, chloroquine alone at or below the 3D7 IC50): survive

CO[C@H]1/C=C/O[C@@]2(C)Oc3c(C)c(O)c4c(c3C2=O)C2=NC3(CCN(CC(C)C)CC3)NC2=C(NC(=O)/C(C)=C\C=C\[C@H](C)[C@H](O)[C@@H](C)[C@@H](O)[C@@H](C)[C@H](OC(C)=O)[C@@H]1C)C4=O [rifabutin]
initial half-life of plasma elimination ([7]; biphasic elimination): approximately 4 hours | mean (±SD) peak plasma concentration (Cmax) ([7]; in vivo, po, 300 mg): 375 (±267) ng/mL | peak plasma concentration (Cmax), range ([7]; in vivo, po, 300 mg): 141 to 1033 ng/mL
